{"source": "patent US20150150842A1", "about": "“DESETHYLAMIODARONE COMPOSITIONS” (priority 2012, published 2015)", "key": {"isolated rabbit heart": {"system": "isolated rabbit heart", "assay": "Atrial fibrillation induced by rapid atrial pacing with carbachol in isolated (Langendorff) rabbit heart", "design": "species or system New Zealand white rabbits", "description": "Hearts from New Zealand white rabbits (1-2 kg) were used in the experiments. Animals were treated with an intravenous injection of 400 IU/kg heparin and anaesthetized by intravenous infusion of 30 mg/kg pentobarbital and sacrificed by cervical dislocation. The protocols were approved by the Department of Animal Health and Food Control of the Ministry of Agriculture and Rural Development, Hungary (XIII/01031/000/2008) and by the Ethical Committee for the Protection of Animals in Research of the University of Szeged, Szeged, Hungary (approval number I-74-125-2007). After median thoracotomy the heart was quickly removed and placed into cold (4° C.) Krebs-Henseleit solution (KHS) containing (in mM): NaCl 118, KCl 4.3, KH2PO4 1.2, MgSO4 1.2, Na pyruvate 5, NaHCO3 25, glucose 11, CaCl2 1.8, pH 7.4 when gassed with a mixture of 95% O2 and 5% CO2. The heart was then mounted on a modified Langendorff apparatus and perfused retrogradely through the aorta with oxygenated KHS warmed to 37° C. The pulmonary vein was also cannulated in order to perfuse the left atrial chamber. In order to record the optical monophasic action potentials the hearts were also loaded with the voltage sensitive fluorescent dye di-4 Anneps for 5 min. To stop the cardiac contractions and avoid motion artefacts during the optical image acquisition the electrical and mechanical activity of the heart was uncoupled by adding 11 mM 2,3-butanedione monoxime to the perfusate.\nEpicardial electrograms from the left atrial and left ventricular wall were amplified with a surface electrode amplifier (Experimetria, Hungary) and monitored using a high frequency oscilloscope (Leader Electronics Corporation, Korea). […] The high resolution optical action potential mapping system consisted of a light-emitting diode (LED) lamp as an excitation light source at a wavelength of 527 nm and a high-resolution, high-speed metal-oxide-semiconductor (CMOS) camera (MiCam02, type MCO2C4) equipped with an 580 nm long pass filter for acquiring the fluorescence images from the surface of the heart at a frequency of 833 Hz. Fluorescence images were analyzed using the Brainvison Analyze software (Brainvision Inc Tokyo, Japan).\nAfter allowing the hearts to stabilize for 15 min, acute episodes of atrial fibrillation were induced with rapid electrical stimulation of the atria at a rate of 50 Hz for 10 sec in the presence of 1 μM carbachol in the perfusate. […] All data are expressed as mean±SEM.\nAll chemicals were purchased from Sigma-Aldrich (St. Louis, Mo., USA), except DEA and di-4 Anneps. Di-4 Anneps was purchased from Molecular Probes Inc. (Eugene, Oreg., USA). […]"}, "conscious rats": {"system": "conscious rats", "description": "The present experiments were performed on male, Sprague-Dawley CFY rats weighing 260-300 g. During a preliminary open-chest surgery we applied a loose silk loop around the left main coronary artery, and then the chest was closed (Leprán et al., 1983). Seven-eight days after the preliminary surgery—after complete recovery and healing—the loose silk loop was tightened to occlude the coronary artery in conscious, freely moving animals. During the first 15 min of myocardial infarction a bipolar ECG was recorded continuously (PowerLab 8SP, ADInstruments, Great Britain).\nWe followed the survival rate during the acute phase (first 15 min) and during the subsequent 16 hours after coronary artery occlusion. The incidence and duration of arrhythmias in the acute phase were evaluated according to the Lambeth Conventions (Walker et al., 1988), i.e. ventricular fibrillation, ventricular tachycardia, and other types of arrhythmias, including ventricular extrasystoles, bigeminy, and salvos. The size of myocardial infarction was measured in the animals surviving for 16 hours after coronary artery occlusion using nitrotetrazolium-blue dye staining.\nLong-term oral pretreatment was applied for 1 month before the coronary artery occlusion. […] Control animals were given the vehicle in a volume of 5 ml/kg."}, "[1]": {"system": "conscious dogs with structural atrial remodelling", "assay": "Chronic rapid atrial pacing induced atrial remodelling and burst-induced atrial fibrillation in conscious dogs", "description": "The experiments were performed on chronically instrumented Beagle dogs of both sexes, weighing 12-13 kg. The animals were subjected to the following surgery under general anaesthesia: pacemakers were implanted into bilateral subcutaneous pockets in the neck area (Logos, Karios; Biotronik Hungaria Ltd.) and were attached to pacemaker electrodes implanted into the right ventricle and right atrium. Radiofrequency catheter ablation was performed in each animal to achieve third degree atrioventricular (AV) block so that during subsequent rapid atrial pacing (400/min) the ventricles are protected from high heart rates. […] On the seventh day after surgery, following the measurement of right atrial effective refractory period the atrial pacemaker was set to a frequency of 400/min to achieve atrial electrical and structural remodelling. Right atrial rapid pacing is necessary to maintain for 3 months in this model to obtain complete remodeling of the atria signalled by the reduction of right atrial effective refractory period below 80 ms.\nThe body weight of animals was monitored for strict adherence to the desired dose.\nThe right atrial effective refractory period (ERP) was measured using the S1 -S2 protocol at cycle lengths of 150 and 300 ms. In addition ERP monitoring, 10-second long burst stimuli were applied at 800/min frequency to induce atrial fibrillation and the incidence of AF, the duration of AF episodes were measured before commencement of oral drug therapy and then after the initiation of therapy every 4 days."}, "[2]": {"system": "dog atrial and ventricular tissue", "assay": "Atrial and ventricular action potential parameters after chronic oral treatment of non-instrumented dogs", "assay_type": "in vivo, Beagle dogs", "details": "500 ms cycle length, 4-week oral DEA 30 or AMIO 45 mg/kg/day"}, "dogs": {"system": "dogs", "details": "4 weeks oral AMIO 45 mg/kg (from 243.2 ms, SE=9.7 after) or DEA 30 mg/kg (from 243.6 ms, SE=7.3 after)"}, "[3]": {"system": "cardiac thyroid receptors", "details": "reported earlier (van Beeren et al, 1995; Latham et al, 1987); cited from earlier work"}, "rats": {"system": "rats", "assay": "Chronic 28-day non-GLP toxicology in rats"}}, "note": "Several values for one entry are separate records, joined by “and”; a condition that tells them apart may be missing. Equal values may be shown once.", "data": [{"smiles": "CCCCc1oc2ccccc2c1C(=O)c1cc(I)c(OCCNCC)c(I)c1", "note": "[DEA, (2-Butylbenzofuran-3-yl)-[4-(2-ethylaminoethoxy)-3,5-diiodophenyl]methanone]", "values": [{"measurement": "Occurrence of atrial fibrillation, After treatment (number of hearts)", "setting": "isolated rabbit heart; 1 μM carbachol, 50 Hz pacing 10 sec, DEA 5 μM, before treatment 5 of 5 hearts", "value": "0 of 5 and 0"}, {"measurement": "Occurrence of atrial fibrillation after treatment, %", "setting": "isolated rabbit heart; 1 μM carbachol, DEA 5 μM, Control 77", "value": 0, "unit": "%"}, {"measurement": "Average duration of atrial fibrillation episodes, After treatment", "setting": "isolated rabbit heart; 1 μM carbachol, DEA 5 μM, mean±SEM, before treatment 110.2 ± 37.1", "value": "0 ± 0"}, {"measurement": "Occurrence of atrial fibrillation", "setting": "isolated rabbit heart; second trial", "value": "completely prevented the occurrence of atrial fibrillation"}, {"measurement": "Death due to the 1 month treatment", "setting": "conscious rats; 1 month oral pretreatment", "value": "No death occurred"}, {"measurement": "Survival rate during the acute phase of experimental myocardial infarction", "setting": "conscious rats; 1 month oral pretreatment", "value": "significantly improved"}, {"measurement": "Behavioral changes, body weight increments", "setting": "conscious rats; 1 month oral pretreatment, AMIO 30 or 100, DEA 15 or 50 mg/kg/day", "value": "Neither AMIO nor DEA produced any behavioral changes of the animals, or in body weight increments"}, {"measurement": "Arrhythmia score", "setting": "conscious rats; first 15 min after coronary artery occlusion, 1 month oral AMIO 100 or DEA 50 mg/kg/day, control 4.77±0.33", "value": "3.27±0.56"}, {"measurement": "Incidence of ventricular fibrillation", "setting": "conscious rats; larger doses (AMIO 100, DEA 50 mg/kg/day), after coronary artery occlusion", "value": "significantly decreased"}, {"measurement": "AF duration (s), Following 4-week treatment, individual animals", "setting": "[1]; oral DEA 25 mg/kg/day, Control (before) 1 122.6, 1 505.8, 6 739.1", "value": "21.6 s and 44 s and 1.9 s"}, {"measurement": "Lg AF duration, Following 4-week treatment, individual animals", "setting": "[1]; oral DEA 25 mg/kg/day, Control (before) 3.05, 3.17, 3.82", "value": "1.33 and 1.64 and 0.28"}, {"measurement": "ERP, Following 4-week treatment, individual animals", "setting": "[1]; oral DEA 25 mg/kg/day, animals 2010/06, 2010/11, 2010/14, Control (before) <80 in all", "value": "80 ms (2×) and <80 ms"}, {"measurement": "Incidence of AF, Following 4-week treatment, individual animals", "setting": "[1]; oral DEA 25 mg/kg/day, burst-induced AF, Control (before) 60%, 50%, 27%", "value": "10% (2×) and 27%"}, {"measurement": "Lg AF duration, Following 4-week treatment, Mean ± SE", "setting": "[1]; oral DEA 25 mg/kg/day, n=3, Control (before) 3.35 ± 0.24", "value": "1.08 ± 0.41"}, {"measurement": "Incidence of AF, Following 4-week treatment, Mean ± SE", "setting": "[1]; oral DEA 25 mg/kg/day, n=3, Control (before) 45.7 ± 9.77", "value": "15.7 ± 5.67", "unit": "%"}, {"measurement": "AF duration (s), Following 4-week treatment, Mean ± SE", "setting": "[1]; oral DEA 25 mg/kg/day, n=3, Control (before) 3122 ± 1811.7", "value": "22.5 ± 12.16", "unit": "s"}, {"measurement": "Incidence and duration of atrial fibrillation", "setting": "[1]; three animals, 4-week oral treatment, DEA 25, AMIO 50 mg/kg/day, accompanied by prolongation of the ERP", "value": "markedly and significantly decreased"}, {"measurement": "Vmax (V/s), Dog atrium", "setting": "[2]; n = 3, CONTROL 249.7 ± 52.7", "value": "231.5 ± 45.4", "unit": "V/s"}, {"measurement": "APD90 (ms), Dog atrium", "setting": "[2]; n = 4, CONTROL 123.9 ± 9.6", "value": "156.6 ± 12.6", "unit": "ms"}, {"measurement": "ECG QTc interval after treatment", "setting": "dogs", "value": 266.9, "unit": "ms"}, {"measurement": "Affinity for cardiac thyroid receptors compared to AMIO", "setting": "[3]", "value": "higher affinity"}, {"measurement": "Detection of the administered drug 14 days after the completion of administration", "setting": "rats; 28-day oral AMIO 200 mg/kg/day or DEA 100 mg/kg/day, plasma (DEA: plasma or cardiac tissue)", "value": "not detected in plasma or cardiac tissue samples"}, {"measurement": "Elimination of DEA compared to AMIO", "setting": "rats; 28-day oral study", "value": "significantly faster"}]}]}
